The values that follow come from patent US20130123264A1, “COMPOSITIONS AND METHODS FOR TREATMENT OF INFLAMMATORY BOWEL DISORDERS AND INTESTINAL CANCERS” (priority 2011, published 2013).

In brackets after ≈: the same amount, converted by molar mass. Entries after “also recorded” stand apart in the source; their conditions may differ.

Usually Solubility stands for how much of the substance goes into solution per volume.

For data set [1] the following is noted: in vivo; cited from earlier work.
Data set [2] has as its system CD1 mouse colon explants. The data set is described as follows: cGMP content of mucosa from mouse colon explants incubated in vitro (ELISA). The class given is cell-based. The settings on record: 2 hours. The protocol:
The cGMP levels were standardized for protein content using OD280 of the extracts. […] Error bars indicate SEM. Asterisks indicate significance relative to control (p<0.05). CD1 mouse colon explants were incubated with PDE5 inhibitors in vitro. After 2 hours, the mucosa was harvested for analysis of cGMP content by ELISA (FIG. 10A).
For orientation: ELISA stands for enzyme-linked immunosorbent assay.

The test system of data set [3] is colon mucosa. Nature of the data set: Colon mucosa homeostasis after 7 days of treatment (TUNEL, BrdU/Ki-67, goblet cell staining). The settings on record: wild type mice, 5 mg/kg IP b.i.d. 7 days; for epithelial cell death / apoptosis (TUNEL) in colon / mature goblet cell numbers in colon: 5 mg/kg. The class given is in vivo, mouse. The text has this:
Sections were stained for apoptotic cells using TUNEL in control and treated. TUNEL positive cells were found. […] FIG. 12B Quantitation of cell proliferation in the colon mucosa by BrdU incorporation. Asterisks in FIGS. 12A and 12B show statistical significance, p<0.05 of treated relative to control.
Mature goblet cells were counted in different sections of the colon following staining with Alcian blue-periodic acid schiff. FIG. 11A: Different regions of the gut (ilium of small intestine, ascending and descending portions of the colon). FIG. 11B: Relative mature goblet cell number in different sections of the proximal colon. Asterisks indicate significance (p<0.05, n=3).
Immunohistochemistry of tissue samples from Vardenafil treated and control mice was performed.

The conditions of data set [4]: in water; cited from earlier work.
In data set [5] the test system is colon mucosa. The data set is described as follows: cGMP content of colon mucosa after intraperitoneal injection (ELISA). The class given is in vivo, mouse. The protocol: The cGMP levels were standardized for protein content using OD280 of the extracts. […] Error bars indicate SEM. Asterisks indicate significance relative to control (p<0.05). […] FIG. 16A is a bar graph of ileum, proximal and distal tissue versus cGMP (pmol/mg protein). Mice were treated by intraperitoneal injection with PBS in vehicle (ctrl) or Vardenafil in vehicle (Vard.) (equivalence to human dose based on body weight). Colon mucosa was harvested 3 hrs later for analysis of cGMP content with ELISA kit. cGMP level was measured relative to total protein loading. […] Same WT/KO tissues were analyzed for apoptosis (TUNEL). Error bars indicate SEM and asterisks show significance (p<0.05). […] The mice were sacrificed 4 hours later and colon mucosa was harvested for analysis of cGMP content by ELISA. The cGMP levels were standardized for protein content using OD280 of the extracts. The error bars show SEM (FIG. 10B).

Data set [6] deals with DSS-induced colitis. Nature of the data set: DSS-induced murine colitis model. The data set is classed as in vivo, mouse. The protocol:
FIG. 20A is a line graph of days of treatment versus disease activity index (DAI). […] The animal weight and stool-composition (diarrhea and bleeding) were recorded daily and are shown as disease activity index. Error bars indicate SD (n=3) and asterisks denote statistical significance (p<0.05, t-test). FIG. 20B is a line graph of proximal, mid, and distal tissue samples versus TUNEL/Crypt. Some mice were sacrificed at Day 5 with DSS for pathological analysis. Descending colons of mice treated with control (Ctrl) and Vardenafil (Vard.) were harvested and stained for apoptosis (TUNEL). Positive cells were subjected to quantification and the quantified cells were graphed. Error bars indicate SEM (n=3) and asterisks denote statistical significance (p<0.05 t-test).
Control animals were injected with PBS vehicle. After 5 days the DSS was replaced with water. Incidence and severity of diarrhea and body weight were recorded daily and combined in an index of disease severity.
The best characterized mouse model of IBD involves administration of dextran sulfate-sodium (DSS) in the drinking water, and this is toxic specifically to luminal epithelial cells of the distal colon.

Data set [7] relates to colon mucosa. The data set is described as follows: Redox stress in colon mucosa by DCF fluorescence after IP treatment. The data set is classed as in vivo, mouse. The settings on record: 4 h, p>0.05 by t-test (n=3). The protocol:
After 4 h the animals were sacrificed and the colon mucosa was harvested for analysis of redox stress using DCF fluorescence. Error bars indicate standard deviation (n=3), but p>0.05 by t-test (FIG. 15B)
(§1) Colons were removed from sacrificed animals and incubated with 20 μM DCF for 30 minutes, then homogenized and the fluorescence measured (at FITC wavelengths; 485/535 nm). Specimens were incubated directly (30 min time point), or incubated for 30 min or 90 min under standard tissue culture conditions before adding DCF for the final 30 min (60 and 120 min time points).

The test system of data set [8] is HCT116 colon cancer cells. The data set is described as follows: cGMP content of colon cancer cells by competitive ELISA. Conditions: colon cancer cell lines, 2 hours incubation.
Data set [9] concerns colon mucosa of Prkg2−/− mice. Nature of the data set: Colon mucosa homeostasis after 7 days of treatment in PKG2 knockout animals. The data set is classed as in vivo, mouse. The protocol:
FIG. 16A is a bar graph of ileum, proximal and distal tissue versus cGMP (pmol/mg protein). […] Colon mucosa was harvested 3 hrs later for analysis of cGMP content with ELISA kit. cGMP level was measured relative to total protein loading. […] Same WT/KO tissues were analyzed for apoptosis (TUNEL). Error bars indicate SEM and asterisks show significance (p<0.05).
FIGS. 17A, 17B, 17C, and 17D are line graphs of ascending, trans, and descending tissue samples versus goblet cells/crypt (17A and B) or CgA/crypt (17C and D). […] Error bars show SEM, N>3, *p<0.05, by two-tailed t-test.
FIGS. 14A-14C show quantification of mature goblet cells in the ascending (A) and transverse colon (B) of wild type and PKG2 knockout animals. […] The increase in goblet cells observed in the wild type animals was not observed in the PKG2-deficient animals, which indicates the involvement of PKG2 in this process.

The test system of data set [10] is JNK. Nature of the data set: JNK-P in colon explants (immunoblotting). The class given is cell-based, mouse. The protocol:
The relative expression of DUSP10 was measured by RT-PCR in wild type and knockout mice (Prkg2+/+ and Prkg2−/−), LS174T and HT29 colon cancer cells with or without PKG2 expression, and in colon explants treated with 8BrcGMP. Mucosa from different parts of the mouse digestive tract were analyzed by immunoblotting for JNKP, total JNK, DUSP10 and PKG2. Immunoblotting of ileum and proximal colon explants with or without 8Br-cGMP treatment to activate PKG2 was also performed.
On the technique in general: Immunoblotting shows a protein as a band on a membrane.

In data set [11] the test system is colon explants. The data set is described as follows: Antioxidant gene expression in colon explants (RT-PCR, Western blotting). The data set is classed as cell-based, mouse. Conditions: 100 uM, 3-4 hours. Here is the method:
Explants of proximal and distal colon from mice were treated for 3-4 hours with 100 uM 8Br-cGMP and then the mucosa was harvested for analysis of antioxidant gene and protein expression by RT-PCR and Western blotting. Blots were reprobed for b-actin expression as a loading control.
In addition to attenuating proliferation, the activation of Foxo4 can upregulate antioxidant genes. To determine whether activation of endogenous PKG could affect the expression of antioxidant genes in the colon, explants of proximal and distal colon from mice were treated for 3-4 hours with 100 uM 8Br-cGMP and then the mucosa was harvested for analysis of antioxidant genes expression by RT-PCR or Western blotting. HPRT and b-actin were used as loading controls.

The subject of data set [12] is colon explants. The data set is described as follows: Redox stress (DCF fluorescence) in colon explants. The settings on record: 100 uM. The class given is cell-based, mouse. The protocol:
FIG. 15A is a bar graph showing DCF fluorescence of extracts from colon explants with (cGMP, open bars) or without (control, filled bars) cGMP treatment.
as §1

For the compound `CN1CC(=O)N2[C@H](c3ccc4c(c3)OCO4)c3[nH]c4ccccc4c3C[C@@H]2C1=O` [Tadalafil, tadalafil], the t1/2 in data set [1] is 17.5 h.

`CCCc1nc(C)c2c(=O)[nH]c(-c3cc(S(=O)(=O)N4CCN(CC)CC4)ccc3OCC)nn12` [Vardenafil, vardenafil]: the “cGMP levels in mouse colon explants” value in data set [2] is recorded as “significantly increase”. In data set [3], the “crypt proliferation (BrdU, Ki-67) in colon” value was “reduced”; the “epithelial cell death / apoptosis (TUNEL) in colon” value is “reduction; also recorded: reduced”; the “mature goblet cell numbers in colon” value is reported as “dramatic increase”. In data set [3] (listed as vardenafil), the “epithelial cell death / apoptosis (TUNEL) in colon” value is “reduced” and the “mature goblet cell numbers in colon” value was “significantly increased”. Besides, in [4], the Solubility was 110 µg/mL (≈ 0.225 mM). Moreover, the “cGMP in the proximal colon epithelium” value in [5] (IP, lesser extent in terminal ileum and distal colon) is reported as “rapidly increased”. Further, in data set [5] (intraperitoneal injection, mucosa harvested 4 hours later), the “intracellular cGMP levels in mouse colon mucosa” value is recorded as “significant increase”. For the same compound, the t1/2 in [1] is 4 to 5 h. In data set [6] (5% DSS, n=4, half the untreated animals died), this compound registered a death of animals of 25%. Also, the “DSS induced apoptosis (TUNEL)” value in [6] (Day 5 with DSS) is given as “inhibited”. Besides, in [6] (descending colon, JNK-phospho T183/Y185), the “DSS induced activation of JNK” value is recorded as “inhibited”. Moreover, in data set [6] (wild type mice), the “DUSP10 levels in the colon mucosa” value was “increased”. In addition, in [7], the “redox stress levels in the colon mucosa (DCF fluorescence)” value is recorded as “partly mimic antioxidant effects of exogenous cGMP; also recorded: could indeed affect redox stress levels”. Besides, in data set [8], the “intracellular cGMP levels” value was “significantly increased”. Moreover, the “increase in goblet cells” value in [9] (PKG2-deficient animals, 5 mg/kg IP b.i.d. 7 days) is “not observed”. For the same compound, the reduction in apoptosis entry in data set [9] (PKG2 knockouts, 5 mg/kg IP b.i.d. 7 days) is “not observed”. In addition, the “homeostasis in Prkg2−/− animals” value in data set [9] (i.p. for several days) is recorded as “did not affect”.

`Nc1nc2c(nc(Br)n2[C@@H]2O[C@@H]3COP(=O)(O)O[C@H]3[C@H]2O)c(=O)[nH]1` [8Br-cGMP]: the “basal activated JNK-P levels in colon explants” value in [10] is “decrease”. The “antioxidant gene expression in colon explants” value in [11] is on record as “broad increase”. For the same compound, in [12], the “redox stress (DCF fluorescence) in colon explants” value is reported as “decreased”.

On to `CCCc1nn(C)c2c(=O)nc(-c3cc(S(=O)(=O)N4CCN(C)CC4)ccc3OCC)[nH]c12` [Sildenafil, sildenafil], for which, in data set [4], the Solubility was 3500 µg/mL (≈ 7.37 mM). Further, the t1/2 in [1] is 3 to 5 h. Moreover, in data set [8], the “intracellular cGMP levels” value is recorded as “significantly increased”.
